Test systems include A549; CCRF-CEM; COLO 205; HCT-116; HL-60; HOP-62; IGROV-1; LXFL 529; MOLT-4; Malme-3M; NCI-H23; SF-295; SF-539; SK-MEL-5; SN12C; SNB-75; SW-620.
Common to all, as to assay: growth of human tumour cells (NCI), 48 h

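A five-concentration, 48-hour dose response in 96-well plates underlies each endpoint, interpolated linearly between surrounding concentrations. At the GI50, growth is halved.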 Calls of active or inactive are those of the source. No stated cut-off is given here; in the data, active = GI50 up to about 1.1 µM and inactive = higher.

With `O=C(/C=C\c1cccc2ccccc12)c1cccc2ccccc12`, the GI50 with A549 is 13.1 µM (inactive); in the assay on CCRF-CEM, 3.3 µM (inactive); in the assay on COLO 205, > 10 µM (inactive); with HCT-116, 6.22 µM (inactive); in the assay with HL-60, 3.64 µM (inactive); in the assay on HOP-62, 20.7 µM (inactive). Further, the GI50 with IGROV-1 is 8.17 µM (inactive); in the assay on LXFL 529, 9.38 µM (inactive); with MOLT-4 it was 2.82 µM (inactive); with Malme-3M, 15.9 µM (inactive); in the assay on NCI-H23, 5.93 µM (inactive); in the assay with SF-295, 14.7 µM (inactive). Further, the GI50 with SF-539 is 14.3 µM (inactive); in the assay with SK-MEL-5 it was 12.7 µM (inactive); in the assay with SN12C, 15.5 µM (inactive); with SNB-75 it was 5.37 µM (inactive); in the assay with SW-620 it was 3.37 µM (inactive).
For the compound `O=C(Nc1ccccc1)N1C(c2ccccc2)=N[C@@H](c2ccccc2)[C@@H]1c1ccccc1`, the GI50 in the assay on A549 was 21.2 µM (inactive); in the assay with CCRF-CEM, 22.6 µM (inactive); with COLO 205, 14.6 µM (inactive); with HCT-116, 17.6 µM (inactive); with HL-60, 19 µM (inactive); in the assay with HOP-62 it was 20.6 µM (inactive). Besides, the GI50 with IGROV-1 is 22.4 µM (inactive); with LXFL 529 it was 15.6 µM (inactive); with MOLT-4 it was 19.1 µM (inactive); in the assay on Malme-3M it was 17.5 µM (inactive); with NCI-H23, 23.7 µM (inactive); with SF-295, 21.9 µM (inactive). Moreover, the GI50 is 18.6 µM (inactive) in the assay with SF-539; 13.6 µM (inactive) in the assay with SK-MEL-5; 21.9 µM (inactive) in the assay on SN12C; 22.1 µM (inactive) in the assay on SNB-75; 18.8 µM (inactive) with SW-620.
Take `CC[n+]1c(/C=C/c2ccc(N(CCCl)CCCl)cc2)ccc2cc(I)ccc21`: the GI50 with A549 is 3.04 µM (inactive); with CCRF-CEM it was 0.319 µM (active); in the assay with COLO 205, 0.191 µM (active); in the assay on HCT-116 it was 0.318 µM (active); with HL-60 it was 0.217 µM (active); in the assay with HOP-62, 1.51 µM (inactive). The GI50 in the assay on IGROV-1 was 0.587 µM (active); in the assay on LXFL 529, 0.409 µM (active); in the assay on MOLT-4, 0.723 µM (active); with Malme-3M, 0.6 µM (active); with NCI-H23, 1.23 µM (inactive); with SF-295, 2.04 µM (inactive). In addition, the GI50 with SF-539 is 0.979 µM (active); with SK-MEL-5, 0.552 µM (active); in the assay with SN12C, 1.28 µM (inactive); in the assay on SNB-75, 0.394 µM (active); with SW-620, 0.916 µM (active).
On to `N#CC(NNC(=O)c1ccccc1O)c1ccccc1` (configuration not stated), for which the GI50 was 0.423 µM (active) in the assay with A549; 0.855 µM (active) in the assay on CCRF-CEM; 33.7 µM (inactive) in the assay with COLO 205; 0.577 µM (active) with HCT-116; 1.8 µM (inactive) with HL-60; 5.89 µM (inactive) with HOP-62. Further, the GI50 is 1.13 µM (inactive) in the assay with IGROV-1; 0.652 µM (active) with LXFL 529; 2.15 µM (inactive) in the assay with MOLT-4; 4.75 µM (inactive) in the assay with Malme-3M; 1.72 µM (inactive) in the assay with NCI-H23; 2.89 µM (inactive) in the assay on SF-295. Further, the GI50 was 3.33 µM (inactive) in the assay with SF-539; 16.1 µM (inactive) in the assay on SK-MEL-5; 9.08 µM (inactive) in the assay with SN12C; 0.38 µM (active) with SNB-75; 8.02 µM (inactive) in the assay on SW-620.
With `CCN(CC)CCNC(=O)c1nn(C)c(=S)[nH]c1=S`, the GI50 in the assay on A549, in the assay with CCRF-CEM, with COLO 205, in the assay on HCT-116, with HL-60 and in the assay on HOP-62 was > 100 µM (inactive) throughout. Besides, the GI50 in the assay on IGROV-1, with LXFL 529, in the assay on MOLT-4, with Malme-3M, in the assay on NCI-H23 and in the assay on SF-295 was > 100 µM (inactive) each time. For the same compound, the GI50 in the assay on SF-539, in the assay on SK-MEL-5, in the assay on SN12C, in the assay on SNB-75 and with SW-620 was > 100 µM (inactive) each time.
For `CN(C)CC/C(=N\Nc1ccc([N+](=O)[O-])cc1)c1ccccc1`, the GI50 in the assay on A549 is 13.4 µM (inactive); with CCRF-CEM it was 7.23 µM (inactive); in the assay with COLO 205 it was 14.9 µM (inactive); in the assay on HCT-116 it was 11.7 µM (inactive); in the assay with HL-60, 3.61 µM (inactive); in the assay with HOP-62 it was 14.2 µM (inactive). Moreover, the GI50 was 11 µM (inactive) in the assay with IGROV-1; 5.83 µM (inactive) in the assay on LXFL 529; 7.43 µM (inactive) in the assay with MOLT-4; 19.4 µM (inactive) with Malme-3M; 13.3 µM (inactive) with NCI-H23; 11.5 µM (inactive) in the assay on SF-295. Besides, the GI50 was 7.28 µM (inactive) with SF-539; 14.5 µM (inactive) in the assay on SK-MEL-5; 10.9 µM (inactive) in the assay with SN12C; 4.5 µM (inactive) with SNB-75; 13.4 µM (inactive) in the assay with SW-620.
Consider `O=C(/C=C/c1ccccc1)NC1C=Nc2ccc(Cl)cc2NC1=O` (configuration not stated), for which the GI50 in the assay on A549 is 28.2 µM (inactive); with CCRF-CEM, 3.52 µM (inactive); with COLO 205, 17.1 µM (inactive); in the assay with HCT-116 it was 22.8 µM (inactive); in the assay with HL-60, 5.3 µM (inactive); with HOP-62, 47.9 µM (inactive). For the same compound, the GI50 with IGROV-1 is 15 µM (inactive); with LXFL 529 it was 23.9 µM (inactive); in the assay with MOLT-4, 4.54 µM (inactive); in the assay on Malme-3M, 26.9 µM (inactive); in the assay on NCI-H23, 27.5 µM (inactive); in the assay with SF-295, 29 µM (inactive). The GI50 with SF-539 is 27.2 µM (inactive); with SK-MEL-5 it was 16.5 µM (inactive); with SN12C, 24.8 µM (inactive); in the assay with SNB-75, 15.6 µM (inactive); in the assay on SW-620, 7.13 µM (inactive).
`O=C1Oc2cc3c(c4cccc1c24)OCN(c1ccc(Cl)cc1)C3`: the GI50 is 10.2 µM (inactive) in the assay on A549; 9.23 µM (inactive) with CCRF-CEM; 7.82 µM (inactive) in the assay with COLO 205; 11.3 µM (inactive) in the assay on HCT-116; 4.82 µM (inactive) in the assay with HL-60; 4.32 µM (inactive) in the assay with HOP-62. For the same compound, the GI50 in the assay on IGROV-1 was > 100 µM (inactive); in the assay with LXFL 529, 0.622 µM (active); in the assay on MOLT-4, 7 µM (inactive); in the assay with Malme-3M, 26.4 µM (inactive); with NCI-H23, 18.8 µM (inactive); in the assay with SF-295 it was 48 µM (inactive). For the same compound, the GI50 was 4.46 µM (inactive) with SF-539; 1.37 µM (inactive) in the assay with SK-MEL-5; 13.6 µM (inactive) in the assay on SN12C; > 63.7 µM (inactive) with SNB-75; 7.4 µM (inactive) with SW-620.
`Cc1ccccc1C(CCCO)C(=O)O` (configuration not stated): the GI50 with A549, with CCRF-CEM, with COLO 205, with HCT-116, in the assay on HL-60 and in the assay with HOP-62 was > 100 µM (inactive) in each case. Moreover, the GI50 with IGROV-1, in the assay with LXFL 529, with MOLT-4, in the assay on Malme-3M, in the assay with NCI-H23 and in the assay with SF-295 was > 100 µM (inactive) in each case. Further, the GI50 with SF-539, in the assay with SK-MEL-5, with SN12C, with SNB-75 and in the assay on SW-620 was > 100 µM (inactive) in each case.
With `Cc1c(C(=O)C/C(=N/NC(=O)c2ccccc2)C(=O)Nc2ccc(Cl)cc2)[n+]([O-])c2ccccc2[n+]1[O-]`, the GI50 was > 100 µM (inactive) with A549; 32.4 µM (inactive) with CCRF-CEM; > 100 µM (inactive) with COLO 205; > 100 µM (inactive) in the assay on HCT-116; 29 µM (inactive) in the assay with HL-60; 90.8 µM (inactive) with HOP-62. Besides, the GI50 in the assay on IGROV-1 is 99.5 µM (inactive); with LXFL 529 it was 84.3 µM (inactive); with MOLT-4, 47 µM (inactive); with Malme-3M it was > 100 µM (inactive); in the assay on NCI-H23, 38.7 µM (inactive); in the assay on SF-295 it was 63.8 µM (inactive). The GI50 in the assay on SF-539 is > 100 µM (inactive); in the assay with SK-MEL-5 it was > 100 µM (inactive); in the assay with SN12C, > 100 µM (inactive); in the assay on SNB-75 it was > 100 µM (inactive); in the assay with SW-620, 46.2 µM (inactive).
As for `CCSC1=C(C)N(/C=N/C(C)(C)C)CC1`, the GI50 in the assay on A549, in the assay with CCRF-CEM, in the assay on COLO 205, with HCT-116, with HL-60 and in the assay on HOP-62 was > 100 µM (inactive) in each case. The GI50 in the assay on IGROV-1, with LXFL 529, with MOLT-4, with Malme-3M, in the assay on NCI-H23 and in the assay on SF-295 was > 100 µM (inactive) throughout. Besides, the GI50 with SF-539 is > 100 µM (inactive); with SK-MEL-5, > 100 µM (inactive); in the assay on SN12C, > 100 µM (inactive); with SNB-75, > 100 µM (inactive); with SW-620, 20.5 µM (inactive).
